Results from PMC7501296, “Rapid and direct control of target protein levels with VHL-recruiting dTAG molecules” (Nature Communications, 2020).

System: EWS502 FKBP12^F36V-EWS/FLI; EWS/FLI^−/− cells
Assay: Synergy assessment: antiproliferation of EWS502 FKBP12F36V-EWS/FLI; EWS/FLI-/- cells co-treated with dTAGV-1 and dBET6, 72 h
Format: cell-based
Procedure: Cell viability was assayed in 2D-adherent or ultra-low adherent 3D-spheroids using CellTiter-Glo (Promega)[6],[15]. Luminescence was measured on an Envision 2104 plate reader (PerkinElmer) and Fluostar Omega Reader (BMG Labtech) and data was analyzed using GraphPad PRISM v8. Synergy assessments were performed using CellTiter-Glo (Promega) with the following modifications to the protocol described in the ref. [34]. In brief, EWS502 cells were plated at 1000 cells per well in 50 µL of appropriate media in 384-well white culture plates (Corning) allowed to adhere overnight, and 100 nL of compounds were added using a Janus Workstation pin tool (PerkinElmer) for 72 h. Cell viability was measured by addition of 10 µL of CellTiter-glo (Promega), followed by incubation for 15 minutes at room temperature. Luminescence was measured on an Envision 2104 plate reader (PerkinElmer) and data was analyzed using GraphPad PRISM v8.

Cc1sc2c(c1C)C(c1ccc(Cl)cc1)=N[C@@H](CC(=O)NCCCCCCCCNC(=O)COc1cccc3c1C(=O)N(C1CCC(=O)NC1=O)C3=O)c1nnc(C)n1-2 (stereo partly shown) [dBET6]
Average DMSO-normalized ratio used for CI calculation (1 nM dBET6 + 19.5 nM dTAGV-1): 0.9811
Average DMSO-normalized ratio used for CI calculation (1 nM dBET6 + 78 nM dTAGV-1): 1.134
Average DMSO-normalized ratio used for CI calculation (1 nM dBET6 + 312.5 nM dTAGV-1): 1.111
Average DMSO-normalized ratio used for CI calculation (1 nM dBET6 + 1250 nM dTAGV-1): 0.8948
Average DMSO-normalized ratio used for CI calculation (1 nM dBET6 + 5000 nM dTAGV-1): 0.8015
Average DMSO-normalized ratio used for CI calculation (1 nM dBET6 alone): 0.8411
Average DMSO-normalized ratio used for CI calculation (4 nM dBET6 + 19.5 nM dTAGV-1): 0.9809
Average DMSO-normalized ratio used for CI calculation (4 nM dBET6 + 78 nM dTAGV-1): 1.057
Average DMSO-normalized ratio used for CI calculation (4 nM dBET6 + 312.5 nM dTAGV-1): 1.0595
Average DMSO-normalized ratio used for CI calculation (4 nM dBET6 + 1250 nM dTAGV-1): 0.7491
Average DMSO-normalized ratio used for CI calculation (4 nM dBET6 + 5000 nM dTAGV-1): 0.4793
Average DMSO-normalized ratio used for CI calculation (4 nM dBET6 alone): 0.8957
Average DMSO-normalized ratio used for CI calculation (15.6 nM dBET6 + 19.5 nM dTAGV-1): 0.798
Average DMSO-normalized ratio used for CI calculation (15.6 nM dBET6 + 78 nM dTAGV-1): 0.8317
Average DMSO-normalized ratio used for CI calculation (15.6 nM dBET6 + 312.5 nM dTAGV-1): 0.7228
Average DMSO-normalized ratio used for CI calculation (15.6 nM dBET6 + 1250 nM dTAGV-1): 0.4425
Average DMSO-normalized ratio used for CI calculation (15.6 nM dBET6 + 5000 nM dTAGV-1): 0.279
Average DMSO-normalized ratio used for CI calculation (15.6 nM dBET6 alone): 0.7797
Average DMSO-normalized ratio used for CI calculation (62.5 nM dBET6 + 19.5 nM dTAGV-1): 0.5057
Average DMSO-normalized ratio used for CI calculation (62.5 nM dBET6 + 78 nM dTAGV-1): 0.5414
Average DMSO-normalized ratio used for CI calculation (62.5 nM dBET6 + 312.5 nM dTAGV-1): 0.4908
Average DMSO-normalized ratio used for CI calculation (62.5 nM dBET6 + 1250 nM dTAGV-1): 0.3106
Average DMSO-normalized ratio used for CI calculation (62.5 nM dBET6 + 5000 nM dTAGV-1): 0.2615
Average DMSO-normalized ratio used for CI calculation (62.5 nM dBET6 alone): 0.5245
Average DMSO-normalized ratio used for CI calculation (250 nM dBET6 + 19.5 nM dTAGV-1): 0.3576
Average DMSO-normalized ratio used for CI calculation (250 nM dBET6 + 78 nM dTAGV-1): 0.3678
Average DMSO-normalized ratio used for CI calculation (250 nM dBET6 + 312.5 nM dTAGV-1): 0.3326
Average DMSO-normalized ratio used for CI calculation (250 nM dBET6 + 1250 nM dTAGV-1): 0.2968
Average DMSO-normalized ratio used for CI calculation (250 nM dBET6 + 5000 nM dTAGV-1): 0.2503
Average DMSO-normalized ratio used for CI calculation (250 nM dBET6 alone): 0.3398
DMSO-normalized antiproliferation, Mean (co-treatment 19.5 nM dTAGV-1 (log10[M] -7.70927) + 1 nM dBET6 (log10[M] -9.0103)): 98.11
DMSO-normalized antiproliferation, Mean (co-treatment 19.5 nM dTAGV-1 (log10[M] -7.70927) + 4 nM dBET6 (log10[M] -8.40824)): 98.09
DMSO-normalized antiproliferation, Mean (co-treatment 19.5 nM dTAGV-1 (log10[M] -7.70927) + 15.6 nM dBET6 (log10[M] -7.80618)): 79.8
DMSO-normalized antiproliferation, Mean (co-treatment 19.5 nM dTAGV-1 (log10[M] -7.70927) + 62.5 nM dBET6 (log10[M] -7.20412)): 50.57
DMSO-normalized antiproliferation, Mean (co-treatment 19.5 nM dTAGV-1 (log10[M] -7.70927) + 250 nM dBET6 (log10[M] -6.60206)): 35.76
DMSO-normalized antiproliferation, Mean (co-treatment 78 nM dTAGV-1 (log10[M] -7.10721) + 1 nM dBET6 (log10[M] -9.0103)): 113.36
DMSO-normalized antiproliferation, Mean (co-treatment 78 nM dTAGV-1 (log10[M] -7.10721) + 4 nM dBET6 (log10[M] -8.40824)): 105.67
DMSO-normalized antiproliferation, Mean (co-treatment 78 nM dTAGV-1 (log10[M] -7.10721) + 15.6 nM dBET6 (log10[M] -7.80618)): 83.17
DMSO-normalized antiproliferation, Mean (co-treatment 78 nM dTAGV-1 (log10[M] -7.10721) + 62.5 nM dBET6 (log10[M] -7.20412)): 54.14
DMSO-normalized antiproliferation, Mean (co-treatment 78 nM dTAGV-1 (log10[M] -7.10721) + 250 nM dBET6 (log10[M] -6.60206)): 36.78
DMSO-normalized antiproliferation, Mean (co-treatment 312.5 nM dTAGV-1 (log10[M] -6.50515) + 1 nM dBET6 (log10[M] -9.0103)): 111.14
DMSO-normalized antiproliferation, Mean (co-treatment 312.5 nM dTAGV-1 (log10[M] -6.50515) + 4 nM dBET6 (log10[M] -8.40824)): 105.95
DMSO-normalized antiproliferation, Mean (co-treatment 312.5 nM dTAGV-1 (log10[M] -6.50515) + 15.6 nM dBET6 (log10[M] -7.80618)): 72.28
DMSO-normalized antiproliferation, Mean (co-treatment 312.5 nM dTAGV-1 (log10[M] -6.50515) + 62.5 nM dBET6 (log10[M] -7.20412)): 49.08
DMSO-normalized antiproliferation, Mean (co-treatment 312.5 nM dTAGV-1 (log10[M] -6.50515) + 250 nM dBET6 (log10[M] -6.60206)): 33.26
DMSO-normalized antiproliferation, Mean (co-treatment 1250 nM dTAGV-1 (log10[M] -5.90309) + 1 nM dBET6 (log10[M] -9.0103)): 89.48
DMSO-normalized antiproliferation, Mean (co-treatment 1250 nM dTAGV-1 (log10[M] -5.90309) + 4 nM dBET6 (log10[M] -8.40824)): 74.91
DMSO-normalized antiproliferation, Mean (co-treatment 1250 nM dTAGV-1 (log10[M] -5.90309) + 15.6 nM dBET6 (log10[M] -7.80618)): 44.25
DMSO-normalized antiproliferation, Mean (co-treatment 1250 nM dTAGV-1 (log10[M] -5.90309) + 62.5 nM dBET6 (log10[M] -7.20412)): 31.06
DMSO-normalized antiproliferation, Mean (co-treatment 1250 nM dTAGV-1 (log10[M] -5.90309) + 250 nM dBET6 (log10[M] -6.60206)): 29.68
DMSO-normalized antiproliferation, Mean (co-treatment 5000 nM dTAGV-1 (log10[M] -5.30103) + 1 nM dBET6 (log10[M] -9.0103)): 80.15
DMSO-normalized antiproliferation, Mean (co-treatment 5000 nM dTAGV-1 (log10[M] -5.30103) + 4 nM dBET6 (log10[M] -8.40824)): 47.93
DMSO-normalized antiproliferation, Mean (co-treatment 5000 nM dTAGV-1 (log10[M] -5.30103) + 15.6 nM dBET6 (log10[M] -7.80618)): 27.9
DMSO-normalized antiproliferation, Mean (co-treatment 5000 nM dTAGV-1 (log10[M] -5.30103) + 62.5 nM dBET6 (log10[M] -7.20412)): 26.15
DMSO-normalized antiproliferation, Mean (co-treatment 5000 nM dTAGV-1 (log10[M] -5.30103) + 250 nM dBET6 (log10[M] -6.60206)): 25.03
Synergy with VHL-mediated EWS/FLI degradation (dTAGV-1) (combination index): synergized strongly
DMSO-normalized antiproliferation, Mean (dBET6 log10[M] -6.60206, with DMSO (no dTAGV-1)): 33.98
DMSO-normalized antiproliferation, Mean (dBET6 log10[M] -7.20412, with DMSO (no dTAGV-1)): 52.45
DMSO-normalized antiproliferation, Mean (dBET6 log10[M] -7.80618, with DMSO (no dTAGV-1)): 77.97
DMSO-normalized antiproliferation, Mean (dBET6 log10[M] -8.40824, with DMSO (no dTAGV-1)): 89.57
DMSO-normalized antiproliferation, Mean (dBET6 log10[M] -9.0103, with DMSO (no dTAGV-1)): 84.11
